{
  "source": "patent US20080275095A1",
  "about": "“Combination of Prostaglandin E2 Receptor Antagonists and Renin-Angiotensin System Inhibitors for Treating Renal Diseases” (Astellas Pharma Inc., priority 2004, published 2008)",
  "system": "rat uninephrectomized anti-Thy-1 nephritis model",
  "assay": "Combination effect of captopril and FR233074 on rat uninephrectomized anti-Thy-1 nephritis model",
  "assay_type": "in vivo",
  "settings": "for elevation in systolic blood pressure: 10 weeks after administration of the antibody, FIG. 9; for elevation in systolic blood pressure / glomerular and tubulointerstitial injury (histological observation): versus control group; for increase in urinary excretion of protein: 24-h urine up to 24 weeks after antibody, captopril 30 mg/kg/day, FR233074 20 mg/kg/day, FIG. 3; for time from the disease induction to the renal death (time point for 1/Cr=0.1): linear extrapolation from averaged 1/Cr and 1/Cr slope, FIG. 8; for rate of decline in renal function (1/Cr slope): single agents versus control, combination versus each agent alone, FIG. 7; for glomerular and tubulointerstitial injury (histological observation): FIG. 12-13",
  "protocol": "Male Wistar rats (6-weeks old) were used for the example. These Wistar rats were anesthetized by administration of pentobarbital and subjected to unilateral nephrectomy. Two weeks later, these rats were injected with anti-Thy-1 antibody (gift of Department of Cell Biology, Institute of Nephrology, Niigata University Graduate School of Medical and Dental Sciences, Japan) from tail vein of them to induce anti-Thy-1 nephritis. Normal group were subjected to only ventrotomy without unilateral nephrectomy and injected with saline instead of anti-Thy-1 antibody.\nOne week after administration of the antibody, the rats were weighted, blood of the rats were collected (0.55 ml from subclavian vein), and 24-h urine collections were performed. Then, these rats were divided into the groups based on body weight, renal function parameters (BUN (blood urea nitrogen) and serum creatinine) and urinary excretion of protein.\nThe agents were administered to the rats for 23 weeks from the day of the grouping. 2, 4, 6, 8, 12, 16, 20 and 24 weeks after administration of the antibody (at 24 weeks after administration of the antibody, the administration of the agents was finished), the rats were weighted, blood of the rats were collected, 24-h urine collections were performed, and then, body weight, renal function parameters and urinary excretion of protein of the rats were determined. Systemic blood pressure of each rat was also measured at 10 weeks after administration of the antibody.\nAn averaged value of 1/Cr in each group at one week after disease induction was plotted, and drew down linearly, based on an averaged value of 1/Cr slope in each group. A time point for 1/Cr=0.1 was calculated, and defined as time reaching renal death (time point for 1/Cr=0.1 is one of standards for introducing dialytic therapy in clinical practice).",
  "data": [
    {"smiles": "C[C@H](CS)C(=O)N1CCC[C@H]1C(=O)O", "note": "[captopril]", "values": [
      {"measurement": "elevation in systolic blood pressure", "value": "suppressed"},
      {"measurement": "increase in urinary excretion of protein", "value": "suppressed"},
      {"measurement": "time from the disease induction to the renal death (time point for 1/Cr=0.1)", "value": "prolonged"},
      {"measurement": "rate of decline in renal function (1/Cr slope)", "value": "decreased"},
      {"measurement": "glomerular and tubulointerstitial injury (histological observation)", "value": "extent of damage was reduced"}
    ]},
    {"smiles": "O=C(NS(=O)(=O)Cc1ccccc1)c1cccc(C[C@@H]2CCCC=C2c2nc(-c3ccccc3)c(-c3ccccc3)o2)c1", "note": "[FR233074, N-benzylsulfonyl-3-{[(1S)-2-(4,5-diphenyloxazol-2-yl)-2-cyclohexen-1-yl]methyl}benzamide]", "values": [
      {"measurement": "elevation in systolic blood pressure", "value": "no significant effect"},
      {"measurement": "increase in urinary excretion of protein", "value": "suppressed"},
      {"measurement": "time from the disease induction to the renal death (time point for 1/Cr=0.1)", "value": "prolonged"},
      {"measurement": "rate of decline in renal function (1/Cr slope)", "value": "decreased"},
      {"measurement": "glomerular and tubulointerstitial injury (histological observation)", "value": "extent of damage was reduced"}
    ]}
  ]
}
